Legend:
Format in all cases: biochemical
[1] = molecular target: human Janus kinase 1 (JAK1), recombinant catalytic domain (Homo sapiens (Human), UniProt P23458); test: LanthaScreen TR-FRET enzymatic assay, JAK1; conditions: 1 mM ATP, GFP-STAT1 substrate, read-out: Inhibitory Activity IC50 JAK1
Description: (§1) The in vitro inhibition of recombinant human JAKs was determined as follow.
(§2) Compounds were tested in LANTHASCREEN™ time-resolved fluorescence energy transfer (TR-FRET) enzymatic assays from Invitrogen. The human Janus kinase 1 (JAK1) used in the assay is the recombinant JAK1 catalytic domain (amino acids 866-1154) expressed and purified from insect cells (Invitrogen, Cat. No. PV4774). The human Janus kinase 2 (JAK2) used in the assay is the recombinant JAK2 catalytic domain (amino acids 808-1132) expressed and purified from insect cells (Invitrogen, Cat. No. PV4210). The human Janus kinase 3 (JAK3) used in the assay is the recombinant JAK3 catalytic domain (amino acids 781-1124) expressed and purified from insect cells (Invitrogen, Cat. No. PV3855). The human tyrosine kinase 2 (TYK2) used in the assay is the recombinant TYK2 catalytic domain (amino acids 833-1187) expressed and purified from insect cells (Invitrogen, Cat. No. PV4790). The substrate is a recombinant STAT1 expressed as a fusion with GFP (Green Fluorescent Protein) to act as a physiological substrate (Invitrogen, Cat. No. PV5211).
(§3) Test compounds were prepared and diluted in DMSO in 3-fold serial dilutions for 10 doses to 100× of the final testing concentrations. The compounds were then further diluted to 4× by the kinase reaction buffer (Invitrogen, Cat. No. PV3189). The enzymatic reaction for compound testing was performed in a white 384-well polypropylene plate (Packard, Cat. No. 6005214) with a total reaction volume of 10 μL containing 440 ng/mL JAK1, 11 ng/mL JAK2, 400 ng/mL JAK3, or 200 ng/mL TYK2, 100 nM substrate, and 1 mM ATP. The assay started with loading 2.5 μL of JAK1, JAK2, JAK3, or TYK2 diluted in the kinase reaction buffer to wells, followed by addition of an equal volume of 4× compounds for 15-min incubation at room temperature for pre-treatment. The enzymatic reaction was initiated by addition of 5 μL of a mixture of the substrate and ATP prepared in the kinase reaction buffer. After one hour reaction, 10 μL mixture of EDTA (final 10 mM) and terbium-labeled anti-pSTAT1 (pTyr701) antibody (final 2 nM) (Invitrogen, Cat. No. PV4844) prepared in TR-FRET antibody dilution buffer (Invitrogen, Cat. No. PV3574) was added to stop the enzymatic reaction and produce TR-FRET signals. After 30 minutes of incubation at room temperature, the plate was read in Tecan Infinite F200 Pro with the following settings: Excitation 340 nm (30)/Emission1 495 nm (10)/Emission2 520 nm (25). The TR-FRET values were dimensionless numbers that were calculated as the ratio of the acceptor ([…]) signal to the donor (Terbium) signal. Percent of inhibition was calculated as (100%−percentage of compound-treated/DMSO vehicle-treated). The dose-response curves were generated and the IC50s were calculated by nonlinear sigmoid curve fitting using GraphPad Prism.
(§4) In Table 1, A represents a value no greater than 500 nM, B represents a value greater than 500 nM but no greater than 1 μM, C represents a value greater than 1 μM but no greater than 5 μM, and D represents a value greater than 5 μM. In Table 2, A′ represents a ratio of greater than 8, B′ represents a ratio of no greater than 8 but no less than 4, C′ represents a ratio of no greater than 4 but no less than 2, and D′ represents a ratio of no greater than 2. The selectivity is expressed as a ratio of the IC50 values of a compound against two kinases to be compared.

[2] = molecular target: human tyrosine kinase 2 (TYK2), recombinant catalytic domain (Homo sapiens (Human), UniProt P29597); test: LanthaScreen TR-FRET enzymatic assay, TYK2; conditions: TR-FRET, 1 mM ATP, GFP-STAT1 substrate; read-out: Inhibitory Activity IC50 TYK2
human tyrosine kinase 2 (TYK2), recombinant catalytic domain (Homo sapiens (Human), UniProt P29597), sequence (P29597 833-1187): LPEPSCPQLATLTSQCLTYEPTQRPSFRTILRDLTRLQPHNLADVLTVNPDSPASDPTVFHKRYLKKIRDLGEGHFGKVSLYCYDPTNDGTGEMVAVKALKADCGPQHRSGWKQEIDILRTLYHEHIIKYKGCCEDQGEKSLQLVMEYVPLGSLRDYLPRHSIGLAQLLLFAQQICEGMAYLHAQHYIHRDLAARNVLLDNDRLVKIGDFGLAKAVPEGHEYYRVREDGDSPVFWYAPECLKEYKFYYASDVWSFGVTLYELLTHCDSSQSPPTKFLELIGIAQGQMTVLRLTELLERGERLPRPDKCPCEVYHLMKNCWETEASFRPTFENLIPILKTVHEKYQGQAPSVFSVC
Description: as §1, §2, §3, §4

[3] = tested on: human tyrosine kinase 2 (TYK2), recombinant catalytic domain; test: LanthaScreen TR-FRET enzymatic assay, TYK2; conditions: ratio of IC50 against TYK2 over IC50 against JAK1
Description: as §1, §2, §3, §4

[4] = molecular target: human Janus kinase 2 (JAK2), recombinant catalytic domain (Homo sapiens (Human), UniProt O60674); test: LanthaScreen TR-FRET enzymatic assay, JAK2; conditions: for IC50: TR-FRET, 1 mM ATP, GFP-STAT1 substrate, read-out: Inhibitory Activity IC50 JAK2; for Selectivity JAK2/JAK1: ratio of IC50 against JAK2 over IC50 against JAK1
human Janus kinase 2 (JAK2), recombinant catalytic domain, sequence (O60674 808-1132): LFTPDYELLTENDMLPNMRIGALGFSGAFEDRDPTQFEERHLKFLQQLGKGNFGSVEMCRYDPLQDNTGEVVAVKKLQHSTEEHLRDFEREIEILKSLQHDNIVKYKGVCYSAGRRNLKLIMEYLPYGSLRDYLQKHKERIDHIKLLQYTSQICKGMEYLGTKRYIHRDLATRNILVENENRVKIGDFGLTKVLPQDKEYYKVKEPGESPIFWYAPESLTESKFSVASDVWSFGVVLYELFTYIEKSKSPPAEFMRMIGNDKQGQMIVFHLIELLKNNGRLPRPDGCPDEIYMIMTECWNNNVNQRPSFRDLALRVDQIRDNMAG
Description: as §1, §2, §3, §4

[5] = molecular target: human Janus kinase 3 (JAK3), recombinant catalytic domain (Homo sapiens (Human), UniProt P52333); test: LanthaScreen TR-FRET enzymatic assay, JAK3; conditions: TR-FRET, 1 mM ATP, GFP-STAT1 substrate; read-out: Inhibitory Activity IC50 JAK3
human Janus kinase 3 (JAK3), recombinant catalytic domain (Homo sapiens (Human), UniProt P52333), sequence (P52333 781-1124): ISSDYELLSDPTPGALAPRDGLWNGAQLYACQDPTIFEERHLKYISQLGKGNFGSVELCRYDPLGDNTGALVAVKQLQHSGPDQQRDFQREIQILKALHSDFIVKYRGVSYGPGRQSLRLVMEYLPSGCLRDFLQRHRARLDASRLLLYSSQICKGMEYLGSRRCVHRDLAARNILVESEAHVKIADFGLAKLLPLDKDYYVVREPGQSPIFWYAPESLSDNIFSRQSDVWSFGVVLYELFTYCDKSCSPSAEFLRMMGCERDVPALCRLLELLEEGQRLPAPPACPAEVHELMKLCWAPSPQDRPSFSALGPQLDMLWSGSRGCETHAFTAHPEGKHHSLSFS
Description: as §1, §2, §3, §4

[6] = tested on: human Janus kinase 3 (JAK3), recombinant catalytic domain; test: LanthaScreen TR-FRET enzymatic assay, JAK3; conditions: ratio of IC50 against JAK3 over IC50 against JAK1
Description: as §1, §2, §3, §4

human Janus kinase 1 (JAK1), recombinant catalytic domain, sequence (P23458 866-1154): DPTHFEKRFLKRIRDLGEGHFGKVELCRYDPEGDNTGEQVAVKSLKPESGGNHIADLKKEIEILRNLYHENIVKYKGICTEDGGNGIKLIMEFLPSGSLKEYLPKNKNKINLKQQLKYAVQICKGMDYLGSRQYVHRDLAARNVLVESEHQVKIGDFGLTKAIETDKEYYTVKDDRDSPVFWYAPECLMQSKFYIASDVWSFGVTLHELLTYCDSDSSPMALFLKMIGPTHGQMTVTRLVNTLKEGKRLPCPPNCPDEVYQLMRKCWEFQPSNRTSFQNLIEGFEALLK

Row | SMILES | IC50 [1] [µM] | IC50 [2] [µM] | IC50 [4] [µM] | IC50 [5] [µM] | Selectivity TYK2/JAK1 [3] | Selectivity JAK2/JAK1 [4] | Selectivity JAK3/JAK1 [6]
1 | O=C(Nc1cn2c(-c3ccc(CN4CCS(=O)(=O)CC4)cc3)cccc2n1)C1CCC1 [Compound 3] | 1 to 5 | > 5 | > 5 | > 5 | A′ (A′ represents a ratio of greater than 8) | A′ (A′ represents a ratio of greater than 8) | A′ (A′ represents a ratio of greater than 8)
2 | O=C(Nc1cn2c(-c3ccc(CN4CCOCC4)cc3)cccc2n1)C1CC1 [Compound 4] | 0.5 to 1 | > 5 | > 5 | > 5 | A′ (A′ represents a ratio of greater than 8) | A′ (A′ represents a ratio of greater than 8) | A′ (A′ represents a ratio of greater than 8)
3 | CN1CCN(Cc2ccc(-c3cccc4nc(NC(=O)C5CC5)cn34)cc2)CC1 [Compound 5] | > 5 | > 5 | > 5 | > 5 | A′ (A′ represents a ratio of greater than 8) | A′ (A′ represents a ratio of greater than 8) | A′ (A′ represents a ratio of greater than 8)
4 | O=C(Nc1cn2c(-c3ccc(CN4CCCCC4)cc3)cccc2n1)C1CC1 [Compound 6] | 1 to 5 | > 5 | > 5 | > 5 | A′ (A′ represents a ratio of greater than 8) | A′ (A′ represents a ratio of greater than 8) | A′ (A′ represents a ratio of greater than 8)
5 | N#CC1CCN(Cc2ccc(-c3cccc4nc(NC(=O)C5CC5)cn34)cc2)CC1 [Compound 7] | 0.5 to 1 | > 5 | > 5 | > 5 | A′ (A′ represents a ratio of greater than 8) | A′ (A′ represents a ratio of greater than 8) | A′ (A′ represents a ratio of greater than 8)
6 | O=C(Nc1cn2c(-c3ccc(CN4CC[C@H](O)C4)cc3)cccc2n1)C1CC1 [Compound 8] | 0.5 to 1 | > 5 | > 5 | > 5 | A′ (A′ represents a ratio of greater than 8) | A′ (A′ represents a ratio of greater than 8) | A′ (A′ represents a ratio of greater than 8)
7 | O=C(Nc1cn2c(-c3ccc(CN4CC[C@@H](O)C4)cc3)cccc2n1)C1CC1 [Compound 9] | 1 to 5 | > 5 | > 5 | > 5 | A′ (A′ represents a ratio of greater than 8) | A′ (A′ represents a ratio of greater than 8) | A′ (A′ represents a ratio of greater than 8)

The next lines start with results.

Row | IC50 [1] [µM] | IC50 [2] [µM] | IC50 [4] [µM] | IC50 [5] [µM] | SMILES | Selectivity TYK2/JAK1 [3] | Selectivity JAK2/JAK1 [4] | Selectivity JAK3/JAK1 [6]
8 | 1 to 5 | > 5 | > 5 | > 5 | COc1ccc(-c2cccc3nc(NC(=O)C4CC4)cn23)cc1 [Compound 10] | A′ (A′ represents a ratio of greater than 8) | A′ (A′ represents a ratio of greater than 8) | A′ (A′ represents a ratio of greater than 8)
9 | ≤ 0.5 | > 5 | > 5 | > 5 | N#CCc1ccc(-c2cccc3nc(NC(=O)C4CC4)cn23)cc1 [Compound 11] | A′ (A′ represents a ratio of greater than 8) | A′ (A′ represents a ratio of greater than 8) | A′ (A′ represents a ratio of greater than 8)
10 | 1 to 5 | > 5 | > 5 | > 5 | Cc1cc(CN2CCS(=O)(=O)CC2)ccc1-c1cccc2nc(NC(=O)C3CC3)cn12 [Compound 12] | A′ (A′ represents a ratio of greater than 8) | A′ (A′ represents a ratio of greater than 8) | A′ (A′ represents a ratio of greater than 8)
11 | 0.5 to 1 | > 5 | > 5 | > 5 | O=C(Nc1cn2c(-c3ccc(C(=O)N4CCS(=O)(=O)CC4)cc3)cccc2n1)C1CC1 [Compound 13, N-(5-(4-(1,1-Dioxo-1-thiomorpholine-4-carbonyl)phenyl)imidazo[1,2-a]pyridin-2-yl)cyclopropane Carboxamide] | A′ (A′ represents a ratio of greater than 8) | A′ (A′ represents a ratio of greater than 8) | A′ (A′ represents a ratio of greater than 8)
12 | ≤ 0.5 | > 5 | > 5 | > 5 | N#CCc1ccc(-c2cccc3nc(NC(=O)C4CC4)cn23)c(F)c1 [Compound 16] | A′ (A′ represents a ratio of greater than 8) | A′ (A′ represents a ratio of greater than 8) | A′ (A′ represents a ratio of greater than 8)
13 | > 5 | > 5 | > 5 | > 5 | Nc1cn2c(-c3ccc(CN4CCS(=O)(=O)CC4)cc3)cccc2n1 [Compound 19] | C′ (C′ represents a ratio of no greater than 4 but no less than 2) | A′ (A′ represents a ratio of greater than 8) | D′ (D′ represents a ratio of no greater than 2)
14 | > 5 | > 5 | > 5 | > 5 | N#CCc1ccc(-c2cccc3nc(N)cn23)c(F)c1 [Compound 21] | C′ (C′ represents a ratio of no greater than 4 but no less than 2) | A′ (A′ represents a ratio of greater than 8) | A′ (A′ represents a ratio of greater than 8)
15 |  |  |  | > 5 | N#CC1(c2ccc(-c3cccc4nc(NC(=O)C5CC5)cn34)cc2)CC1 [Compound 22] |  | A′ (A′ represents a ratio of greater than 8) | 
16 | 0.5 to 1 | > 5 | > 5 | > 5 | CC1(C)CN(C(=O)c2ccc(-c3cccc4nc(NC(=O)C5CC5)cn34)c(F)c2)C1 [Compound 23] | A′ (A′ represents a ratio of greater than 8) | A′ (A′ represents a ratio of greater than 8) | A′ (A′ represents a ratio of greater than 8)
17 | > 5 | > 5 | > 5 | > 5 | O=C(Nc1cn2c(-c3ccc(CN4CCS(=O)(=O)CC4)cc3)c(Cl)ccc2n1)C1CC1 [Compound 34] |  |  | 
18 | > 5 | > 5 | > 5 | > 5 | Cc1ccc(-c2ccc(CN3CCS(=O)(=O)CC3)cc2)n2cc(NC(=O)C3CC3)nc12 [Compound 35] |  |  | 

Reference: US10730875B2, “Substituted imidazo[1,2-A]pyridin-2-ylamine compounds, and pharmaceutical compositions and methods of use thereof” (JN Therapeutics, priority 2015, dated 2020)
